pIC50: −log10 of the molar value.
Assays:
canine 5-HT2B receptor = molecular target: T1, canine 5-HT2B receptor (Canis lupus familiaris, UniProt Q50DZ8); assay: Canine 5-HT2B (c5-HT2B) in-vitro assay, FLIPR calcium response; assay type: cell-based; conditions: CHO-K1 cells stably expressing canine 5-HT2B receptor; inhibition of EC80 serotonin calcium response
T1 construct: expressed in transfected cells; host or cells: CHO-K1
Protocol: CHO-K1 cells stably expressing the canine 5-HT2B receptor were seeded at 20,000 cells per well in 20 μl culture media (DMEM with GlutaMAX™ high glucose+5% dialyzed FBS+10 mM HEPES+1×MEM Non-Essential Amino Acids of a 384-well black plate with clear bottom for at least 18 hours at 37° C. and 5% CO2. The cell plate was loaded with 20 μl/well of the FLIPR® Calcium 5 Assay kit prepared in HBSS containing calcium and magnesium supplemented with 20 mM HEPES and 5 mM Probenecid at pH 7.4 and incubated at 37° C. and 5% CO2 for 30 minutes and then an additional 30 minutes at room temperature. The intracellular calcium response was measured using the FLIPR Tetra® instrument measuring the kinetic response of the Calcium 5 dye at an excitation wavelength of 470-495 nm and emission wavelength of 515-575 nm at room temperature. The cells were initially challenged with a 5× concentration of the antagonist (10 μl/well) after an initial baseline recording and the calcium response was recorded for almost 2 minutes. After the completion of the initial antagonist challenge, the cell plate was incubated at room temperature in the FLIPR Tetra® instrument for 10 minutes. Finally, a second kinetic assay was performed after the 10 minute incubation at room temperature to measure the inhibitory response of the EC80 concentration of serotonin (15 μl/well) after an initial baseline recording. The IC50 concentration was determined for each antagonist tested.

hERG = molecular target: T2, hERG (Homo sapiens, UniProt Q12809); assay: hERG in-vitro assay, IonWorks Barracuda population patch clamp; assay type: cell-based; conditions: hERG/HEK293 cells; hERG current block, 5 minutes exposure
T2 construct: stably transfected with full length hERG cDNA; expressed in transfected cells; host or cells: HEK293
T2 sequence (Q12809 whole entry): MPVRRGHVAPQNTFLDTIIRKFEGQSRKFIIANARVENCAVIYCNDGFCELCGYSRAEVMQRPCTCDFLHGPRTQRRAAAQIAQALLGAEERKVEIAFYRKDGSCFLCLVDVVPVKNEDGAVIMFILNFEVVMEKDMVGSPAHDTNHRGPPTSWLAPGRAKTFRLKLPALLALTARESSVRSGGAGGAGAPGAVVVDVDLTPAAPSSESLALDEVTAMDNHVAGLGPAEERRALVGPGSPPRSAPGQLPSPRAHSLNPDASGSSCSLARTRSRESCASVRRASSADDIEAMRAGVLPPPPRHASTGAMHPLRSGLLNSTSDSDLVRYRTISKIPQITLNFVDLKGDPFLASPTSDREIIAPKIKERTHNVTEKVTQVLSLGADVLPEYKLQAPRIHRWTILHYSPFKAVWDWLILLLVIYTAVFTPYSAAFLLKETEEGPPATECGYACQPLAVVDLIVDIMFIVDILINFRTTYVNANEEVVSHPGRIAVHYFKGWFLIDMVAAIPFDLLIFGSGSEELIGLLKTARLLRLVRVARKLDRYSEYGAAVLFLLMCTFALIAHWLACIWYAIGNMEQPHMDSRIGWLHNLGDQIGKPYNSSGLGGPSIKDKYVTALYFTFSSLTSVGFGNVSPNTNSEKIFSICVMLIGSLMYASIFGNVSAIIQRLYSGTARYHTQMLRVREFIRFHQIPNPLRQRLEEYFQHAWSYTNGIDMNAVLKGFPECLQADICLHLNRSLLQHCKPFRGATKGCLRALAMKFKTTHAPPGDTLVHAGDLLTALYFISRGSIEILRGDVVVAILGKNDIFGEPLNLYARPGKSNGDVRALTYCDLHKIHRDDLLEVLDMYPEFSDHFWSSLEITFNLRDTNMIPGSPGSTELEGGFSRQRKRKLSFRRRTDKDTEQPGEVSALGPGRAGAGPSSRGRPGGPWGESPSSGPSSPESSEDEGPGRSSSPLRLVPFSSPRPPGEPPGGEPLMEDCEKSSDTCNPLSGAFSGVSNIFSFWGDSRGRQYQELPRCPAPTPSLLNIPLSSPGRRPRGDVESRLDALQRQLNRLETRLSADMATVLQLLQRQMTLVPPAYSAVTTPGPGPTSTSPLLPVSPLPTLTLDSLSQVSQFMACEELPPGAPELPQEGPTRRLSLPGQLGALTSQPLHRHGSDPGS
Protocol: Stock solutions of compounds of the invention and positive control (cisapride; 0.001-3 μM) were prepared in DMSO. Stock solutions were diluted in a HEPES-buffered physiological saline solution. Test and control solutions contained 0.3% DMSO. Human hERG/HEK293 renal epithelial cells stably transfected with full length hERG cDNA were cultured in Dulbecco's Modified Eagle Medium/Nutrient Mixture F-12 (D-MEM/F-12) supplemented with 10% fetal bovine serum, 100 U/mL penicillin G sodium, 100 μg/mL streptomycin sulfate and 500 μg/mL G418. Before testing, cells in culture dishes were rinsed with Hank's Balanced Salt Solution (HBSS) and detached with accutase. Immediately before use in the IonWorks Barracuda™ system, the cells were washed with buffered physiological saline solution (HB-PS) buffer to remove the accutase and re-suspended in 5 mL of HB-PS. The test article effects were evaluated using IonWorks Barracuda™ systems (Molecular Devices Corporation, Union City, CA). HEPES-buffered intracellular solution for whole cell recordings was loaded into the intracellular compartment of the Population Patch Clamp™ (PPC) planar electrode.
Extracellular buffer (HB-PS) was loaded into PPC planar electrode plate wells (11 μL/well). The cell suspension was pipetted into the wells of the PPC planar electrode (9 μL/well). After establishment of a whole-cell configuration (the perforated patch), membrane currents were recorded using patch clamp amplifier in the IonWorks Barracuda™ system. The current recordings were performed one (1) time before test article application to the cells (baseline) and one (1) time after application of the test article. Test article concentrations were applied to naïve cells. Each application consisted of addition of 20 μL of 2× concentrated test article solution to the total 40 μL of final volume of the extracellular well of the PPC plate. Duration of exposure to each compound concentration was five (5) minutes. hERG current was elicited using a pulse pattern with fixed amplitudes (the first conditioning pre-pulse to 10 mV for 60 second, the second conditioning pre-pulse: −90 mV for 20 ms; the test pulse: +40 mV for 100 ms) from a holding potential of 0 mV (‘zero holding’ procedure). hERG current was measured as a difference between the peak current at 1 ms and at the end of test step to +40 mV. Data acquisition and analyses were performed using the IonWorks Barracuda™ system operation software (version 2.0.2). The decrease in current amplitude after test article application was used to calculate the percent block relative to control. Results for each test article concentration (n≥1) were averaged; the mean and standard deviation values were calculated and used to generate dose-response curves.

T1 sequence (Q50DZ8 1-434): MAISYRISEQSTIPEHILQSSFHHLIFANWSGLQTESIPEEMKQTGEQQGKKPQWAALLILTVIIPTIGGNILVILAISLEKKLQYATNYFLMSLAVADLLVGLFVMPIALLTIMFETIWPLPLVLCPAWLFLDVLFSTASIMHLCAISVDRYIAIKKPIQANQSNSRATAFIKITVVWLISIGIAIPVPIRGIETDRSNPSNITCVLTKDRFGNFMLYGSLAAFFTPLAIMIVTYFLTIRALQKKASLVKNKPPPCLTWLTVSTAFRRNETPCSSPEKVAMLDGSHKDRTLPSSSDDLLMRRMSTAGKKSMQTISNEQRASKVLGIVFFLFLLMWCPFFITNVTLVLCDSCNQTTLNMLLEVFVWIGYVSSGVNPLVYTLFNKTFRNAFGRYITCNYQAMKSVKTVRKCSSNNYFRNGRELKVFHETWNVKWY

Structure (SMILES) | pIC50 (canine 5-HT2B receptor) | pIC50 (hERG)
N#Cc1ccc(-c2ccc(C(=O)N3CCC(c4ncc[nH]4)CC3)cc2)cc1 [CA-5, 4′-(4-(1H-imidazol-2-yl)piperidine-1-carbonyl)-[1,1′-biphenyl]-4-carbonitrile, reference compound] | 6.34 | 7.27
Cc1c[nH]c(C2CCN(C(=O)c3ccc(-c4ccc(F)cc4)cc3)CC2)n1 [CA-6, (4′-fluoro-[1,1′-biphenyl]-4-yl)(4-(4-methyl-1H-imidazol-2-yl)piperidin-1-yl)methanone, reference compound] | 8.14 | > 7.52
O=C(c1ccc(-c2ccc(F)cc2)cc1)N1CCC(Nc2ncc[nH]2)CC1 [Example 1, (4-((1H-imidazol-2-yl)amino)piperidin-1-yl)(4′-fluoro-[1,1′-biphenyl]-4-yl)methanone] | 8.70 | 5.81
CS(=O)(=O)c1cccc(-c2ccc(C(=O)N3CCC(c4ncc[nH]4)CC3)cc2)c1 [Example 2, (4-(1H-imidazol-2-yl)piperidin-1-yl)(3′-(methylsulfonyl)-[1,1′-biphenyl]-4-yl)methanone] | 7.28 | 4.14
O=C(c1ccc(-c2ccc(C(F)(F)F)cc2)cc1)N1CCC(c2ncc[nH]2)CC1 [Example 3, (4-(1H-imidazol-2-yl)piperidin-1-yl)(4′-(trifluoromethyl)-[1,1′-biphenyl]-4-yl)methanone] | 8.29 | 5.46
Cc1cnc(C2CCN(C(=O)c3ccc(-c4ccc(C(F)(F)F)cc4)cc3)CC2)[nH]1 [Example 4, (4-(5-methyl-1H-imidazol-2-yl)piperidin-1-yl)(4′-(trifluoromethyl)-[1,1′-biphenyl]-4-yl)methanone] | 7.66 | 5.95
O=C(c1ccc(-c2ccc(C(F)(F)F)cc2)cc1)N1CCC(Nc2ncc[nH]2)CC1 [Example 7, (4-((1H-imidazol-2-yl)amino)piperidin-1-yl)(4′-(trifluoromethyl)-[1,1′-biphenyl]-4-yl)methanone] | 7.52 | 5.60
O=C(c1ccc(-c2ccccc2)nc1)N1CCC(c2ncc[nH]2)CC1 [Example 11, (4-(1H-imidazol-2-yl)piperidin-1-yl)(6-phenylpyridin-3-yl)methanone] | 8.35 | 5.48
O=C(c1ccc(-c2ccc(C(F)(F)F)cc2)cc1)N1CCC(Cc2ncc[nH]2)CC1 [Example 12, (4-((1H-imidazol-2-yl)methyl)piperidin-1-yl)(4′-(trifluoromethyl)-[1,1′-biphenyl]-4-yl)methanone] | 7.19 | 5.32
O=C(c1ccc(-c2ccc3c(c2)OCO3)cc1)N1CCC(c2ncc[nH]2)CC1 [Example 13, (4-(1H-imidazol-2-yl)piperidin-1-yl)(4-(benzo[d][1,3]dioxol-5-yl)phenyl)methanone] | 8.85 | 5.76
O=C(c1ccc2c(c1)[nH]c1ccccc12)N1CCC(c2ncc[nH]2)CC1 [Example 14, (4-(1H-imidazol-2-yl)piperidin-1-yl)(9H-carbazol-2-yl)methanone] | 8.89 | 5.24
O=C(c1ccc(-c2cccc(C(F)(F)F)c2)cc1)N1CCC(c2ncc[nH]2)CC1 [Example 19, (4-(1H-imidazol-2-yl)piperidin-1-yl)(3′-(trifluoromethyl)-[1,1′-biphenyl]-4-yl)methanone] | 9.05 | 5.83
O=C(c1ccc2c(ccn2-c2ccccc2)c1)N1CCC(c2ncc[nH]2)CC1 [Example 21, (4-(1H-imidazol-2-yl)piperidin-1-yl)(1-phenyl-1H-indol-5-yl)methanone] | 8.51 | 5.37

Molecules with a higher pIC50 (canine 5-HT2B receptor), results first:

pIC50 (canine 5-HT2B receptor) | Structure (SMILES) | pIC50 (hERG)
9.19 | Cc1cnc(C2CCN(C(=O)c3ccc(-c4n[nH]c5ccccc45)cc3)CC2)[nH]1 [Example 6, (4-(1H-indazol-3-yl)phenyl)(4-(5-methyl-1H-imidazol-2-yl)piperidin-1-yl)methanone] | 4.45
9.19 | O=C(c1ccc2c(c1)oc1ccccc12)N1CCC(c2ncc[nH]2)CC1 [Example 15, (4-(1H-imidazol-2-yl)piperidin-1-yl)(dibenzo[b,d]furan-3-yl)methanone] | 5.70
9.19 | O=C(c1ccc(-c2ccccc2)cc1)N1CCC(c2ncc[nH]2)CC1 [CA-3, (4-(1H-imidazol-2-yl)piperidin-1-yl)([1,1′-biphenyl]-4-yl)methanone, reference compound] | 6.21
9.19 | O=C(c1ccc(Oc2ccccc2)cc1)N1CCC(c2ncc[nH]2)CC1 [Example 8, (4-(1H-imidazol-2-yl)piperidin-1-yl)(4-phenoxyphenyl)methanone] | 5.50
9.29 | O=C(c1ccc(-c2cccc(Cl)c2)cc1)N1CCC(c2ncc[nH]2)CC1 [Example 10, (4-(1H-imidazol-2-yl)piperidin-1-yl)(3′-chloro-[1,1′-biphenyl]-4-yl)methanone] | 5.56
9.38 | O=C(c1ccc(Nc2ccccc2)cc1)N1CCC(c2ncc[nH]2)CC1 [Example 9, (4-(1H-imidazol-2-yl)piperidin-1-yl)(4-(phenylamino)phenyl)methanone] | 5.41
9.48 | Cc1cnc(C2CCN(C(=O)c3ccc(-c4c[nH]c5ccccc45)cc3)CC2)[nH]1 [Example 5, (4-(1H-indol-3-yl)phenyl)(4-(5-methyl-1H-imidazol-2-yl)piperidin-1-yl)methanone] | 5.18
9.51 | O=C(c1ccc(-c2ccc(C(F)F)cc2)cc1)N1CCC(c2ncc[nH]2)CC1 [Example 16, (4-(1H-imidazol-2-yl)piperidin-1-yl)(4′-(difluoromethyl)-[1,1′-biphenyl]-4-yl)methanone] | 5.56
9.52 | O=C(c1ccc(-c2ccc(F)cc2)cc1)N1CCC(Cc2ncc[nH]2)CC1 [CA-1, (4-((1H-imidazol-2-yl)methyl)piperidin-1-yl)(4′-fluoro-[1,1′-biphenyl]-4-yl)methanone, reference compound] | 6.26
10.05 | O=C(c1ccc(-c2ccccc2F)cc1)N1CCC(c2ncc[nH]2)CC1 [CA-7, (4-(1H-imidazol-2-yl)piperidin-1-yl)(2′-fluoro-[1,1′-biphenyl]-4-yl)methanone, reference compound] | 5.96
10.10 | O=C(c1ccc(-c2ccc(F)cc2)cc1)N1CCC(c2ncc[nH]2)CC1 [CA-4, (4-(1H-imidazol-2-yl)piperidin-1-yl)(4′-fluoro-[1,1′-biphenyl]-4-yl)methanone, reference compound] | > 7.52
10.40 | O=C(c1ccc(-c2cccc3[nH]ccc23)cc1)N1CCC(c2ncc[nH]2)CC1 [Example 17, (4-(1H-imidazol-2-yl)piperidin-1-yl)(4-(1H-indol-4-yl)phenyl)methanone] | 5.23
11.00 | O=C(c1ccc(-n2ccc3ccccc32)cc1)N1CCC(c2ncc[nH]2)CC1 [Example 18, (4-(1H-imidazol-2-yl)piperidin-1-yl)(4-(1H-indol-1-yl)phenyl)methanone] | 5.47
11.00 | O=C(c1ccc(-c2cccc3c2OCO3)cc1)N1CCC(c2ncc[nH]2)CC1 [Example 20, (4-(1H-imidazol-2-yl)piperidin-1-yl)(4-(benzo[d][1,3]dioxol-4-yl)phenyl)methanone] | 5.47

Reference: US12240827B2, “Serotonin 5-HT2B inhibitory compounds” (Zoetis Services LLC, priority 2019, dated 2025)
